Test results taken from ChEMBL document CHEMBL2429764, “Synthesis and cytotoxic activity of novel hybrid compounds between 2-alkylbenzofuran and imidazole” (Med Chem Res, 2013).

The compounds below were run on A549 (assay: Cytotoxicity against human A549 cells after 48 hrs by MTT assay). Conditions: A549, 48 h.
Assay type: functional, cell-based

**Q.** With `CCc1n(Cc2cc3ccccc3o2)cc[n+]1CC(=O)c1ccccc1` as the compound, how does the IC50 read?
**A.** > 40 µM

**Q.** For `O=C(C[n+]1ccn(Cc2cc3ccccc3o2)c1)c1ccc(Br)cc1`, which IC50 is on record?
**A.** 12.2 µM

**Q.** How did the IC50 turn out when `C=CC[n+]1ccn(Cc2cc3ccccc3o2)c1C` was run?
**A.** > 40 µM

**Q.** Which IC50 does the source give for `COc1ccc(C(=O)C[n+]2cn(Cc3cc4ccccc4o3)c3ccccc32)cc1` here?
**A.** 7.18 µM

**Q.** For `O=C(C[n+]1ccn(Cc2cc3ccccc3o2)c1)c1ccc2ccccc2c1`, which IC50 is on record?
**A.** 9.95 µM

**Q.** How did the IC50 turn out when `CCc1n(Cc2cc3ccccc3o2)cc[n+]1CC(=O)c1ccc(OC)cc1` was run?
**A.** 1.13 µM

**Q.** Which IC50 does the source give for `Cc1n(Cc2cc3ccccc3o2)cc[n+]1CC(=O)c1ccc(Br)cc1` here?
**A.** > 40 µM

**Q.** `Cc1n(Cc2cc3ccccc3o2)cc[n+]1C(C(=O)c1ccccc1)c1ccccc1` (stereo not given) was tested. Which IC50 did it give?
**A.** 14.8 µM

**Q.** With `O=C(C[n+]1cn(Cc2cc3ccccc3o2)c2ccccc21)c1ccc2ccccc2c1` as the compound, how does the IC50 read?
**A.** 6.73 µM

**Q.** `Brc1ccccc1C[n+]1ccn(Cc2cc3ccccc3o2)c1` was tested. Which IC50 did it give?
**A.** > 40 µM

**Q.** For `O=C(C[n+]1cn(Cc2cc3ccccc3o2)c2ccccc21)c1ccc(Br)cc1`, which IC50 is on record?
**A.** 2.54 µM

**Q.** With `Cc1n(Cc2cc3ccccc3o2)cc[n+]1CC(=O)c1ccc2ccccc2c1` as the compound, how does the IC50 read?
**A.** 4.97 µM

**Q.** With `CCCC[n+]1cn(Cc2cc3ccccc3o2)c2ccccc21` as the compound, how does the IC50 read?
**A.** > 40 µM

**Q.** For `C=CC[n+]1ccn(Cc2cc3ccccc3o2)c1`, which IC50 is on record?
**A.** > 40 µM

**Q.** Which IC50 does the source give for `CCc1n(Cc2cc3ccccc3o2)cc[n+]1CC(=O)c1ccc2ccccc2c1` here?
**A.** 7.44 µM

**Q.** Which IC50 does the source give for `CCc1nccn1Cc1cc2ccccc2o1` here?
**A.** > 40 µM

**Q.** Which IC50 does the source give for `O=C(C[n+]1cn(Cc2cc3ccccc3o2)c2ccccc21)c1ccc(O)cc1` here?
**A.** > 40 µM

These compounds were tested on HL-60 (assay: Cytotoxicity against human HL60 cells after 48 hrs by MTT assay). Conditions: HL-60, 48 h.
Assay type: functional, cell-based

**Q.** Which IC50 does the source give for `CCc1n(Cc2cc3ccccc3o2)cc[n+]1CC(=O)c1ccccc1` here?
**A.** > 40 µM

**Q.** With `O=C(C[n+]1ccn(Cc2cc3ccccc3o2)c1)c1ccc(Br)cc1` as the compound, how does the IC50 read?
**A.** 10.3 µM

**Q.** `C=CC[n+]1ccn(Cc2cc3ccccc3o2)c1C` was tested. Which IC50 did it give?
**A.** > 40 µM

**Q.** How did the IC50 turn out when `COc1ccc(C(=O)C[n+]2cn(Cc3cc4ccccc4o3)c3ccccc32)cc1` was run?
**A.** 3.91 µM

**Q.** Which IC50 does the source give for `O=C(C[n+]1ccn(Cc2cc3ccccc3o2)c1)c1ccc2ccccc2c1` here?
**A.** 6.27 µM

**Q.** For `CCc1n(Cc2cc3ccccc3o2)cc[n+]1CC(=O)c1ccc(OC)cc1`, which IC50 is on record?
**A.** 0.4 µM

**Q.** With `Cc1n(Cc2cc3ccccc3o2)cc[n+]1CC(=O)c1ccc(Br)cc1` as the compound, how does the IC50 read?
**A.** > 40 µM

**Q.** For `Cc1n(Cc2cc3ccccc3o2)cc[n+]1C(C(=O)c1ccccc1)c1ccccc1` (stereo not given), which IC50 is on record?
**A.** 4.44 µM

**Q.** For `O=C(C[n+]1cn(Cc2cc3ccccc3o2)c2ccccc21)c1ccc2ccccc2c1`, which IC50 is on record?
**A.** 3.62 µM

**Q.** With `Brc1ccccc1C[n+]1ccn(Cc2cc3ccccc3o2)c1` as the compound, how does the IC50 read?
**A.** > 40 µM

**Q.** Which IC50 does the source give for `O=C(C[n+]1cn(Cc2cc3ccccc3o2)c2ccccc21)c1ccc(Br)cc1` here?
**A.** 1.69 µM

**Q.** How did the IC50 turn out when `Cc1n(Cc2cc3ccccc3o2)cc[n+]1CC(=O)c1ccc2ccccc2c1` was run?
**A.** 1.04 µM

**Q.** Which IC50 does the source give for `CCCC[n+]1cn(Cc2cc3ccccc3o2)c2ccccc21` here?
**A.** > 40 µM

**Q.** With `C=CC[n+]1ccn(Cc2cc3ccccc3o2)c1` as the compound, how does the IC50 read?
**A.** > 40 µM

**Q.** Which IC50 does the source give for `CCc1n(Cc2cc3ccccc3o2)cc[n+]1CC(=O)c1ccc2ccccc2c1` here?
**A.** 1.45 µM

**Q.** `CCc1nccn1Cc1cc2ccccc2o1` was tested. Which IC50 did it give?
**A.** > 40 µM

**Q.** With `O=C(C[n+]1cn(Cc2cc3ccccc3o2)c2ccccc21)c1ccc(O)cc1` as the compound, how does the IC50 read?
**A.** > 40 µM

What follows are compounds tested on MCF7 (assay: Cytotoxicity against human MCF7 cells after 48 hrs by MTT assay). Conditions: MCF7, 48 h.
Assay type: functional, cell-based

**Q.** With `CCc1n(Cc2cc3ccccc3o2)cc[n+]1CC(=O)c1ccccc1` as the compound, how does the IC50 read?
**A.** > 40 µM

**Q.** `O=C(C[n+]1ccn(Cc2cc3ccccc3o2)c1)c1ccc(Br)cc1` was tested. Which IC50 did it give?
**A.** 18 µM

**Q.** How did the IC50 turn out when `C=CC[n+]1ccn(Cc2cc3ccccc3o2)c1C` was run?
**A.** > 40 µM

**Q.** How did the IC50 turn out when `COc1ccc(C(=O)C[n+]2cn(Cc3cc4ccccc4o3)c3ccccc32)cc1` was run?
**A.** 14.6 µM

**Q.** `O=C(C[n+]1ccn(Cc2cc3ccccc3o2)c1)c1ccc2ccccc2c1` was tested. Which IC50 did it give?
**A.** 12.7 µM

**Q.** How did the IC50 turn out when `CCc1n(Cc2cc3ccccc3o2)cc[n+]1CC(=O)c1ccc(OC)cc1` was run?
**A.** 3.05 µM

**Q.** For `Cc1n(Cc2cc3ccccc3o2)cc[n+]1CC(=O)c1ccc(Br)cc1`, which IC50 is on record?
**A.** > 40 µM

**Q.** Which IC50 does the source give for `Cc1n(Cc2cc3ccccc3o2)cc[n+]1C(C(=O)c1ccccc1)c1ccccc1` (stereo not given) here?
**A.** 6.79 µM

**Q.** For `O=C(C[n+]1cn(Cc2cc3ccccc3o2)c2ccccc21)c1ccc2ccccc2c1`, which IC50 is on record?
**A.** 3.72 µM

**Q.** With `Brc1ccccc1C[n+]1ccn(Cc2cc3ccccc3o2)c1` as the compound, how does the IC50 read?
**A.** > 40 µM

**Q.** With `O=C(C[n+]1cn(Cc2cc3ccccc3o2)c2ccccc21)c1ccc(Br)cc1` as the compound, how does the IC50 read?
**A.** 2.46 µM

**Q.** How did the IC50 turn out when `Cc1n(Cc2cc3ccccc3o2)cc[n+]1CC(=O)c1ccc2ccccc2c1` was run?
**A.** 1.09 µM

**Q.** With `CCCC[n+]1cn(Cc2cc3ccccc3o2)c2ccccc21` as the compound, how does the IC50 read?
**A.** > 40 µM

**Q.** `C=CC[n+]1ccn(Cc2cc3ccccc3o2)c1` was tested. Which IC50 did it give?
**A.** > 40 µM

**Q.** Which IC50 does the source give for `CCc1n(Cc2cc3ccccc3o2)cc[n+]1CC(=O)c1ccc2ccccc2c1` here?
**A.** 2.59 µM

**Q.** How did the IC50 turn out when `CCc1nccn1Cc1cc2ccccc2o1` was run?
**A.** > 40 µM

**Q.** With `O=C(C[n+]1cn(Cc2cc3ccccc3o2)c2ccccc21)c1ccc(O)cc1` as the compound, how does the IC50 read?
**A.** > 40 µM

Each compound was assayed on SMMC-7721 (assay: Cytotoxicity against human SMMC7721 cells after 48 hrs by MTT assay). Conditions: SMMC-7721, 48 h.
Assay type: functional, cell-based

**Q.** With `CCc1n(Cc2cc3ccccc3o2)cc[n+]1CC(=O)c1ccccc1` as the compound, how does the IC50 read?
**A.** > 40 µM

**Q.** How did the IC50 turn out when `O=C(C[n+]1ccn(Cc2cc3ccccc3o2)c1)c1ccc(Br)cc1` was run?
**A.** 14.3 µM

**Q.** `C=CC[n+]1ccn(Cc2cc3ccccc3o2)c1C` was tested. Which IC50 did it give?
**A.** > 40 µM

**Q.** For `COc1ccc(C(=O)C[n+]2cn(Cc3cc4ccccc4o3)c3ccccc32)cc1`, which IC50 is on record?
**A.** 13.6 µM

**Q.** `O=C(C[n+]1ccn(Cc2cc3ccccc3o2)c1)c1ccc2ccccc2c1` was tested. Which IC50 did it give?
**A.** 8.08 µM

**Q.** With `CCc1n(Cc2cc3ccccc3o2)cc[n+]1CC(=O)c1ccc(OC)cc1` as the compound, how does the IC50 read?
**A.** 8.43 µM

**Q.** With `Cc1n(Cc2cc3ccccc3o2)cc[n+]1CC(=O)c1ccc(Br)cc1` as the compound, how does the IC50 read?
**A.** > 40 µM

**Q.** With `Cc1n(Cc2cc3ccccc3o2)cc[n+]1C(C(=O)c1ccccc1)c1ccccc1` (stereo not given) as the compound, how does the IC50 read?
**A.** 11.3 µM

**Q.** For `O=C(C[n+]1cn(Cc2cc3ccccc3o2)c2ccccc21)c1ccc2ccccc2c1`, which IC50 is on record?
**A.** 6.44 µM

**Q.** With `Brc1ccccc1C[n+]1ccn(Cc2cc3ccccc3o2)c1` as the compound, how does the IC50 read?
**A.** > 40 µM

**Q.** `O=C(C[n+]1cn(Cc2cc3ccccc3o2)c2ccccc21)c1ccc(Br)cc1` was tested. Which IC50 did it give?
**A.** 3.58 µM

**Q.** For `Cc1n(Cc2cc3ccccc3o2)cc[n+]1CC(=O)c1ccc2ccccc2c1`, which IC50 is on record?
**A.** 3.5 µM

**Q.** Which IC50 does the source give for `CCCC[n+]1cn(Cc2cc3ccccc3o2)c2ccccc21` here?
**A.** > 40 µM

**Q.** How did the IC50 turn out when `C=CC[n+]1ccn(Cc2cc3ccccc3o2)c1` was run?
**A.** > 40 µM

**Q.** Which IC50 does the source give for `CCc1n(Cc2cc3ccccc3o2)cc[n+]1CC(=O)c1ccc2ccccc2c1` here?
**A.** 4.26 µM

**Q.** `CCc1nccn1Cc1cc2ccccc2o1` was tested. Which IC50 did it give?
**A.** > 40 µM

**Q.** With `O=C(C[n+]1cn(Cc2cc3ccccc3o2)c2ccccc21)c1ccc(O)cc1` as the compound, how does the IC50 read?
**A.** > 40 µM

Each compound was assayed on SW480 (assay: Cytotoxicity against human SW480 cells after 48 hrs by MTT assay). Conditions: SW480, 48 h.
Assay type: functional, cell-based

**Q.** For `CCc1n(Cc2cc3ccccc3o2)cc[n+]1CC(=O)c1ccccc1`, which IC50 is on record?
**A.** > 40 µM

**Q.** Which IC50 does the source give for `O=C(C[n+]1ccn(Cc2cc3ccccc3o2)c1)c1ccc(Br)cc1` here?
**A.** > 40 µM

**Q.** How did the IC50 turn out when `C=CC[n+]1ccn(Cc2cc3ccccc3o2)c1C` was run?
**A.** > 40 µM

**Q.** `COc1ccc(C(=O)C[n+]2cn(Cc3cc4ccccc4o3)c3ccccc32)cc1` was tested. Which IC50 did it give?
**A.** 23.1 µM

**Q.** `O=C(C[n+]1ccn(Cc2cc3ccccc3o2)c1)c1ccc2ccccc2c1` was tested. Which IC50 did it give?
**A.** 17.1 µM

**Q.** How did the IC50 turn out when `CCc1n(Cc2cc3ccccc3o2)cc[n+]1CC(=O)c1ccc(OC)cc1` was run?
**A.** 1.02 µM

**Q.** How did the IC50 turn out when `Cc1n(Cc2cc3ccccc3o2)cc[n+]1CC(=O)c1ccc(Br)cc1` was run?
**A.** > 40 µM

**Q.** With `Cc1n(Cc2cc3ccccc3o2)cc[n+]1C(C(=O)c1ccccc1)c1ccccc1` (stereo not given) as the compound, how does the IC50 read?
**A.** 9.96 µM

**Q.** With `O=C(C[n+]1cn(Cc2cc3ccccc3o2)c2ccccc21)c1ccc2ccccc2c1` as the compound, how does the IC50 read?
**A.** 17.1 µM

**Q.** How did the IC50 turn out when `Brc1ccccc1C[n+]1ccn(Cc2cc3ccccc3o2)c1` was run?
**A.** > 40 µM

**Q.** `O=C(C[n+]1cn(Cc2cc3ccccc3o2)c2ccccc21)c1ccc(Br)cc1` was tested. Which IC50 did it give?
**A.** 4.2 µM

**Q.** For `Cc1n(Cc2cc3ccccc3o2)cc[n+]1CC(=O)c1ccc2ccccc2c1`, which IC50 is on record?
**A.** 1.03 µM

**Q.** Which IC50 does the source give for `CCCC[n+]1cn(Cc2cc3ccccc3o2)c2ccccc21` here?
**A.** > 40 µM

**Q.** Which IC50 does the source give for `C=CC[n+]1ccn(Cc2cc3ccccc3o2)c1` here?
**A.** > 40 µM

**Q.** With `CCc1n(Cc2cc3ccccc3o2)cc[n+]1CC(=O)c1ccc2ccccc2c1` as the compound, how does the IC50 read?
**A.** 1.69 µM

**Q.** For `CCc1nccn1Cc1cc2ccccc2o1`, which IC50 is on record?
**A.** > 40 µM

**Q.** Which IC50 does the source give for `O=C(C[n+]1cn(Cc2cc3ccccc3o2)c2ccccc21)c1ccc(O)cc1` here?
**A.** > 40 µM
